Experiments:
[1] = tested on: Malassezia furfur; experiment: Anti-fungal efficacy, germ count reduction; assay type: cell-based; conditions: 0.12%
Method: Assay of the anti-fungal efficacy of zinc pyrithione, piroctone, climbazole and sclareolide on Malassezia furfur was assayed.

[2] = tested on: Enterococcus faecalis ATCC 29212; conditions: cited from earlier work
[3] = tested on: total lipids; experiment: Total lipid content in ex vivo scalp skin biopsies (Nile Red staining); assay type: cell-based, human; conditions: 0.12%
Method: (§1) Method: CYP27B1 was assessed by immunohistochemistry with a specific antibody. Biopsies of healthy human scalp skin in culture were treated with sclareolide diluted at 0.12% in placebo (ceraphyl 368 (Ashland) applied once a day for 48 hours topically (20 μl/biopsy). Control biopsies received only ceraphyl 368. The immunostaining was performed using paraffin sections incubated in the presence of anti-CYP27B1 antibody (rabbit monoclonal, Abcam). After an hour and a half of incubation followed by rinses, the sections were incubated in the presence of the secondary anti-rabbit antibody coupled with a fluorophore (Alexa Fluor® 488, Invitrogen). The sections were then examined under a fluorescence microscope (Nikon Eclipse Ni-E microscope). CYP27B1 expression was then observed (using NiS-AR Nikon acquisition software) and quantified by image analysis (Volocity® image analysis software, Improvision).
Method: total lipids were assessed by fluorescent staining by using the fluorescent dye Nile Red. The treatment of the biopsies was the same than in example 4. […] The sections were then examined under a fluorescence microscope (Nikon Eclipse Ni-E microscope). Red fluorescence was then observed (using NiS-AR Nikon acquisition software) and quantified by image analysis (Volocity® image analysis software, Improvision).

[4] = tested on: Malassezia restricta; experiment: Broth microdilution (MIC) assay, resazurin fluorescence; assay type: cell-based
Method: Sclareolide antifungal potential on Malassezia restricta was evaluated by the broth microdilution method.
Method: Malassezia restricta was routinely grown on modified Leeman-Notman (mLN) agar. The broth microdilution assay was performed following EUCAST guidelines (www.eucast.org) with slight modifications. Between five and ten colonies were suspended in a modified RPMI 1640 media supplemented with resazurin at a D.O (Density Optical) of 0.1. In a 96 well plate, serial dilutions of sclareolide (0.00023% to 0.12%), zinc pyrithione (0.015%-0.0023%) and Ketoconazol (0.5-0.015 μg/ml) were prepared in modified RPMI 1640. An equal volume of Malassezia restricta inoculum was added to the test samples at different concentrations. Following 48 h-60 h of incubation at 34° C., resazurin fluorescence was analyzed at 530 nm and 590 nm.
Results are presented as relative fluorescence intensity compared to DMSO control. the MIC is defined as the lowest drug concentration that inhibited growth.

[5] = tested on: Staphylococcus aureus ATCC 25923; conditions: cited from earlier work
[6] = tested on: Pseudomonas aeruginosa ATCC 27950; conditions: cited from earlier work
[7] = tested on: CYP27B1; experiment: CYP27B1 expression in ex vivo scalp skin biopsies (immunohistochemistry); assay type: cell-based, human
Method: as §1

[8] = tested on: keratin 10; experiment: Keratin 10 expression in ex vivo scalp skin biopsies (immunohistochemistry); assay type: cell-based, human; conditions: 0.12%
Method: as §1
Method: Keratin 10 was assessed by immunohistochemistry. The protocol was the same as in example 4 with the use of anti-keratin 10 antibody (rabbit monoclonal, Abcam).

[9] = tested on: Escherichia coli ATCC 25922; conditions: cited from earlier work
[10] = Solubility in surfactant solution (12% Sodium laureth sulfate/2% Cocamidopropyl betaine); assay type: physicochemical; conditions: 12% Sodium laureth sulfate (SLES)/2% Cocamidopropyl betaine (CAPB), 1 hour stirring
[11] = 48 h-60 h incubation at 34° C., vs DMSO control

## CC(C)(C)C(=O)C(Oc1ccc(Cl)cc1)n1ccnc1 (stereo not shown) [Climbazole, climbazole]
[1]
  Reduction % (6 h): 38.5%
  Reduction % (24 h): 33.80%

## Cc1cc(CC(C)CC(C)(C)C)n(O)c(=O)c1 (stereo not shown) [OCT, piroctone]
[1]
  Reduction % (6 h): 15.4%
  Reduction % (24 h): 35.30%

## CC1(C)CCC[C@]2(C)[C@H]3CC(=O)O[C@]3(C)CC[C@@H]12 [sclareolide, Sclareolide]
[1]
  Reduction % (6 h): 38.5%
  Reduction % (24 h): 32.40%
[2]
  antibacterial activity: good antibacterial activity
[3]; 48-hour treatment, compared to placebo, significant
  increase in lipid labelling intensity: +46%
[3]; 48 hours, placebo = 100%
  Total lipid content (% placebo): 146%
[4]; [11]
  concentration at which growth of Malassezia restricta was completely inhibited (MIC): 0.12%
  concentration from which growth of Malassezia restricta was significantly inhibited: 0.001875%
[5]
  antibacterial activity: good antibacterial activity
[6]
  antibacterial activity: good antibacterial activity
[7]; 0.12% in ceraphyl 368, topical once a day, 48 hours, placebo = 100%
  CYP27B1 protein expression (% placebo): 138%
[7]; 0.12%, 48-hour treatment, compared to placebo, very significant
  increase in CYP27B1 labelling intensity: +38%
[8]; 48-hour treatment, compared to placebo, highly significant
  increase in keratin 10 labelling intensity: +20%
[8]; 48 hours, placebo = 100%
  Keratin 10 expression (% placebo): 120%
[9]
  antibacterial activity: good antibacterial activity
[10]
  dissolution in surfactant solution: could not be dissolved

## zinc pyrithione [ZPT]
[1]
  Reduction % (6 h): 47.4%
  Reduction % (24 h): 93.10%
[4]; tested in parallel at the same concentrations
  inhibition of Malassezia restricta: high inhibition

Reference: patent US20250387311A1, “SCLAREOL OR SCLAREOLIDE FOR IMPROVING SCALP CONDITIONS AND HAIR GROWTH” (ISP Investments LLC, priority 2022, published 2025)
